The source of these data is patent publication WO2023231996A1, “Crystal forms of hydroxamic acid ester compound and salt thereof, and preparation method” (Shenzhen Chipscreen Biosciences Co Ltd, priority 2022, dated 2023).

One data set has as its target Tyk2 (Homo sapiens, UniProt P29597). To be noted: recorded in PCT/CN2021/134929; cited from earlier work.
Data set [1] can be described thus: Crystal form by XRPD after DVS. The class given is physicochemical. To be noted: humidity 50%-95%-0%-50%.
A short description of data set [2]: Solid-state stability by XRPD under stress, accelerated and room-temperature conditions. The class given is physicochemical. Conditions: high temperature (60°C), high humidity (25°C/92.5%RH), accelerated (40°C/75%RH), room temperature (25°C/60%RH), open.
Data set [3] can be described thus: Hygroscopicity by dynamic moisture adsorption and desorption (DVS). The class given is physicochemical. Conditions: humidity 50%-95%-0%-50%.
Data set [4] is described as follows: Thermodynamic stability by competitive slurry, XRPD (Example 34). The class given is physicochemical. Conditions: suspended in saturated acetonitrile or MTBE solution, equal amounts of form E and form AH, 6 days.
[5] abbreviates: light not given in the conclusion.

Chain of Tyk2 (P29597 whole entry, species assumed): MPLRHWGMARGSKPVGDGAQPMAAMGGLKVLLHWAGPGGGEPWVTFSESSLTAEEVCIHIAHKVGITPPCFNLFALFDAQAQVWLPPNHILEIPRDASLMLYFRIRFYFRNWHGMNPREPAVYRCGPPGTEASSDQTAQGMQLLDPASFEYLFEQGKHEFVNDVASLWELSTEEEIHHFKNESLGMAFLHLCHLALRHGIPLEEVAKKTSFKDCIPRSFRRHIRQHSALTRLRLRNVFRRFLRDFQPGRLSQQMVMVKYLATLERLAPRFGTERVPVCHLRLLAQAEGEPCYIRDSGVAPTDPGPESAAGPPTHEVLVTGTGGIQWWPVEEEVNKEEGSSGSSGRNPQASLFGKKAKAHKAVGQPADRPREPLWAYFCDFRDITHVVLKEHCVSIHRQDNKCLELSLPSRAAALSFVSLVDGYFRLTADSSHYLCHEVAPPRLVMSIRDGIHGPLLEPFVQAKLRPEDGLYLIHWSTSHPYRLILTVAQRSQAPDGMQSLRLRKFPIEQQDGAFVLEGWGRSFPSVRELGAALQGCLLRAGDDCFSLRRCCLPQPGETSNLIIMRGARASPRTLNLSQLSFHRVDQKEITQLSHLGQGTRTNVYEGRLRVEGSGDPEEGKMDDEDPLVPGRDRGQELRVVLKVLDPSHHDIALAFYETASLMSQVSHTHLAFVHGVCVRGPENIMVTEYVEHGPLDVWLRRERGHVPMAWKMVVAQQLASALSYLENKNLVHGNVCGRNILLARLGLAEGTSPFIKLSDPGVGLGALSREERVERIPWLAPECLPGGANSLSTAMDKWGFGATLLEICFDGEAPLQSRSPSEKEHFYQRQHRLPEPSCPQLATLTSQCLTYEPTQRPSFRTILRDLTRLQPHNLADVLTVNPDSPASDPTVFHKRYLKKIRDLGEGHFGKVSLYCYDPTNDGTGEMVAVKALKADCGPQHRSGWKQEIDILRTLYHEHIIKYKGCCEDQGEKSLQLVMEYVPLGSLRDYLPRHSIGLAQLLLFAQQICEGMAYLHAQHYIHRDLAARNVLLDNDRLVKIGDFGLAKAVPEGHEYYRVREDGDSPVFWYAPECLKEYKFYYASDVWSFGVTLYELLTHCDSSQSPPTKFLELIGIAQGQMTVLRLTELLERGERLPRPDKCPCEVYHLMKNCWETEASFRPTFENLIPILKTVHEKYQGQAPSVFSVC

As for `CCONC(=O)c1cnc(Nc2cc(C)nc(C)n2)cc1Nc1cccc(-c2ncccn2)c1OC` [compound represented by formula (I), 6-(((2,6-二甲基嘧啶-4-基)氨基)-N-乙氧基-4-((2-甲氧基-3-(嘧啶-2-基)苯基)氨基)烟酰胺], the “Tyk2 selective inhibitory activity” value at Tyk2 is on record as “excellent Tyk2 selective inhibitory activity”.
On to `CCONC(=O)c1cnc(Nc2cc(C)nc(C)n2)cc1Nc1cccc(-c2ncccn2)c1OC.O=C(O)CC(O)(CC(=O)O)C(=O)O` [citric acid eutectic crystal form Type A], for which, in data set [1], the “crystalline transformation before and after the DVS test” value is “did not crystallize before and after the DVS test. type transformation”. Further, the stability entry in data set [2] (setting [5]) is listed as “remains stable”. In addition, in data set [3], the hygroscopicity entry is on record as “almost no hygroscopicity”.
For the molecule `CCONC(=O)c1cnc(Nc2cc(C)nc(C)n2)cc1Nc1cccc(-c2ncccn2)c1OC` [unsolvated crystalline form E], the “crystalline transformation before and after the DVS test” value in data set [1] was “does not undergo a crystalline transformation”. Also, the stability result in data set [2] (setting [5]) is listed as “remains stable”. In addition, the hygroscopicity result in data set [3] is given as “no hygroscopicity”. Further, the thermodynamic stability result in data set [4] was “higher stability than Form AH”.
Regarding `CCONC(=O)c1cnc(Nc2cc(C)nc(C)n2)cc1Nc1cccc(-c2ncccn2)c1OC.O=C(O)CC(O)C(=O)O` [malic acid eutectic crystal form Type A], the “crystalline transformation before and after the DVS test” value in data set [1] was “did not crystallize before and after the DVS test. type transformation”. In data set [2] (setting [5]), the stability entry is “remains stable”. Further, in data set [3], the hygroscopicity result is recorded as “slightly hygroscopic”.
In the case of `CCONC(=O)c1cnc(Nc2cc(C)nc(C)n2)cc1Nc1cccc(-c2ncccn2)c1OC.O=C(O)/C=C\C(=O)O` [maleate crystal form Type A], the “crystalline transformation before and after the DVS test” value in data set [1] is “does not undergo crystalline transformation”. In data set [2] (setting [5]), the stability result is “remains stable”. Further, the hygroscopicity result in data set [3] is reported as “extremely hygroscopic”.
As to `CCONC(=O)c1cnc(Nc2cc(C)nc(C)n2)cc1Nc1cccc(-c2ncccn2)c1OC` [unsolvated crystalline form AH], in data set [1], the “crystalline transformation before and after the DVS test” value is recorded as “did not undergo a crystalline transformation”. For the same molecule, the stability entry in data set [2] (light (25°C/4500Lux)) is “remains stable”. The hygroscopicity result in data set [3] is recorded as “has hygroscopicity”.
